# Laboratory results taken from patent US10975119B2, “Selective cysteine protease inhibitors and uses thereof” (Genesis Technologies Limited, priority 2011, dated 2021).
# Where “and” joins values, the source holds several entries; their conditions need not be identical. Identical values can stand only once. Like-named read-outs stand apart in the source and are kept apart here.
# Assays:
# Format in all cases: biochemical
# [1] = target: T1, Caspase-1 (Homo sapiens, UniProt P29466); experiment: Caspase-1 inhibitor screening assay (BioVision kit, YVAD-AFC); settings: for inhibition at 10 µM: read-out: % Inhibition at 10 uM Casp1; for inhibition at 100 µM: read-out: % Inhibition at 100 uM Casp1
# T1 construct: mixing the compounds with the respective active caspases; purchased BioVision K151-100
# T1 sequence (P29466 120-297 limits assumed): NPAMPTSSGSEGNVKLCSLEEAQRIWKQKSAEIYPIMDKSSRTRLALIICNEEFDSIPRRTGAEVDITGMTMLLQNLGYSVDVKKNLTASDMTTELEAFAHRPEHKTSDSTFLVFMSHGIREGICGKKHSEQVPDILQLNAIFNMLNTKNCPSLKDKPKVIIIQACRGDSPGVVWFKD
# T1 sequence (P29466 317-404 limits assumed): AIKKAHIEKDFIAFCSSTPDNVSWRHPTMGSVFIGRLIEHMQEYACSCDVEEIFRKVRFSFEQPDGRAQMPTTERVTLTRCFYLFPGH
# Procedure, shortened: (§1)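 Fluorometric read-out of free AFC released from the caspase-specific synthetic substrate. IC50 from concentration series, sometimes narrower.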
# [2] = target: T2, Caspase-2 (Homo sapiens, UniProt P42575); experiment: Caspase-2 inhibitor screening assay (BioVision kit, VDVAD-AFC); settings: for inhibition at 10 µM: read-out: % Inhibition at 10 uM Casp2; for inhibition at 100 µM: read-out: % Inhibition at 100 uM Casp2; for IC50: read-out: IC50 Casp2
# T2 construct: mixing the compounds with the respective active caspases; purchased BioVision K152-100
# T2 sequence (P42575 170-325 limits assumed): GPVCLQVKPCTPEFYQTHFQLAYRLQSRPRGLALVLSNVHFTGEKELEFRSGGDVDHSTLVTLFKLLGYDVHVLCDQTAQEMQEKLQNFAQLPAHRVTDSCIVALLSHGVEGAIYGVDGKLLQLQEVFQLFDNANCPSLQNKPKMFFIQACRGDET
# T2 sequence (P42575 334-452 limits assumed): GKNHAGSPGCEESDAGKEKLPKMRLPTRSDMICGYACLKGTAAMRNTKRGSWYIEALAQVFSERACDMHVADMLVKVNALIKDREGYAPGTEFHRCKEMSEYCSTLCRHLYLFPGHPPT
# Description: (§2) The efficacy of an array of compounds as an inhibitor of the activity of Caspases 1 through 10 were assessed by using the respective Caspase Inhibitor Drug Screening Kits (Caspase-1 Catalog #: K151-100, Caspase-2 Catalog #: K152-100, Caspase-3 Catalog #: K153-100, Caspase-4 Catalog #: K154-100, Caspase-5 Catalog #: K155-100, Caspase-6 Catalog #: K156-100, Caspase-7 Catalog #: K157-100, Caspase-8 Catalog #: K158-100, Caspase-9 Catalog #: K159-100, Caspase-10 Catalog #: K160-100, BioVision) following the instructions of the manufacturer. […] Active caspases cleaved their respective synthetic substrates to release free AFC, which was then quantified by fluorometry.
# (§3) Briefly, the compounds were first tested at 2 concentrations (10 uM and 100 uM final) to determine if there is a hit. […] Each condition was tested in duplicates. […] For some samples, a smaller range of concentrations was tested depending on the % Inhibition results at 10 uM and 100 uM. Results were summarized in Tables 2, 3, and 4 herein after. Table 2 represents the IC50 values (uM) of the test compounds as inhibitors of the activity of the various caspases.
# (§4) (*) RFU (no inhibitor control)—RFU (compound at a specific concentration)
# (§5) RFU (no inhibitor control)
# [3] = target: T3, Caspase-8 (Homo sapiens, UniProt Q14790); experiment: Caspase-8 inhibitor screening assay (BioVision kit, IETD-AFC); settings: for inhibition at 10 µM: read-out: % Inhibition at 10 uM Casp8; for inhibition at 100 µM: read-out: % Inhibition at 100 uM Casp8
# T3 construct: mixing the compounds with the respective active caspases; purchased BioVision K158-100
# Procedure, shortened: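 Each caspase cleaved its own AFC-labelled peptide substrate, and released AFC was read by fluorescence. % inhibition came from RFU against an uninhibited control.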
# [4] = target: T4, Caspase-10 (Homo sapiens, UniProt Q92851); experiment: Caspase-10 inhibitor screening assay (BioVision kit, AEVD-AFC); settings: for inhibition at 10 µM: read-out: % Inhibition at 10 uM Casp10; for inhibition at 100 µM: read-out: % Inhibition at 100 uM Casp10
# T4 construct: mixing the compounds with the respective active caspases; purchased BioVision K160-100
# T4 sequence (Q92851 220-415 limits assumed): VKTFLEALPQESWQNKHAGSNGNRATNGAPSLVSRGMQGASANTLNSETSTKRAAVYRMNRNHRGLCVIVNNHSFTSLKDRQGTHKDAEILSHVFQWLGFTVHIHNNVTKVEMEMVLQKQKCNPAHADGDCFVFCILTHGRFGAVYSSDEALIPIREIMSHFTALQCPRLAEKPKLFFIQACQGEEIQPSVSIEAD
# T4 sequence (Q92851 416-521 limits assumed): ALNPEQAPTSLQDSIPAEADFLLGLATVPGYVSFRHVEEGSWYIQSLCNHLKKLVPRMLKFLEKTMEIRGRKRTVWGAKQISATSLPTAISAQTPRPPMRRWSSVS
# Procedure, shortened: as §1
# [5] = tested on: Caspases 1 through 10; experiment: Caspase-1 to Caspase-10 inhibitor screening, profile across the panel
# Description: as §2, §3, §4, §5
# [6] = read-out: potency (IC50) against caspase-10
# [7] = read-out: potency (IC50) against caspase-1
# T3 sequence (Q14790 217-374 limits assumed): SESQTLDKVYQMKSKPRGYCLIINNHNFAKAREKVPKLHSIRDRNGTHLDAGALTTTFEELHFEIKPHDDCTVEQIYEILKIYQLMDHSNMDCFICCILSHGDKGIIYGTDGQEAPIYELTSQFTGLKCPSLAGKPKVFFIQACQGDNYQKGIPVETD
# T3 sequence (Q14790 385-479 limits assumed): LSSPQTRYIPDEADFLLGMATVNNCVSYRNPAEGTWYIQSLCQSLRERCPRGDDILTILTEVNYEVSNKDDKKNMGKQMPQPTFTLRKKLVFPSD
SMILES,inhibition at 10 µM [1] [%],inhibition at 100 µM [1] [%],IC50 ([1]; read-out: IC50 Casp1) [µM],inhibition at 10 µM [2] [%],inhibition at 100 µM [2] [%],IC50 [2] [µM],inhibition at 10 µM [3] [%],inhibition at 100 µM [3] [%],IC50 ([3]; read-out: IC50 Casp8),inhibition at 10 µM [4] [%],inhibition at 100 µM [4] [%],IC50 ([4]; read-out: IC50 Casp10) [µM],"IC50 [4, 6] [µM]","inhibition profile across caspases, in words [5]","IC50 [1, 7] [µM]",IC50 ([3]; read-out: potency (IC50) against caspase-8) [µM]
"CC(C)(C)[C@H](NC(=O)[C@H](CC(=O)O)NC(=O)OCc1ccccc1)C(=O)N1CCCC1C(=O)N[C@H](/C=C/S(C)(=O)=O)CC(=O)O (stereo in doubt) [Compound 26, Z-Asp-t-Leu-Pro-Asp-methyl vinyl sulfone]",69,99,4.29,70,96,4.36,82,99,2.23 µM,99,100,0.16,0.161,high inhibitory activity towards the effector (executioner) Caspases: Caspase-3 and -7,,
"CCOC(=O)/C=C/[C@H](CC(=O)O)NC(=O)[C@@H](NC(=O)[C@@H](NC(=O)[C@H](CC(=O)O)NC(=O)OCc1ccccc1)c1ccccc1)C(C)C [Compound 105, Z-Asp-Phg-Val-Asp Ethyl Vinyl Ester]",84,96,,0,17,,77,79,2.62 µM,96,99,0.59,0.592,high inhibitory activity towards the effector (executioner) Caspases: Caspase-3 and -7,1.05,2.62
"CC(C)(C)[C@H](NC(=O)c1ccc(N)c(Cl)c1)C(=O)N1CCCC1C(=O)N[C@H](/C=C/S(C)(=O)=O)CC(=O)O (stereo in doubt) [Compound 14, 4-amino-3-chlorobenzene carbonyl-t-Leu-Pro-Asp methyl vinyl sulfone]",99,100,0.02,1,10,> 100,46,95,12.8 µM and 12.9 µM,81,100,2.67,2.67,very strong inhibitory activity towards pro-inflammatory Caspases,0.019,
